In brackets after ≈: the same amount, converted by molar mass. Where a SMILES comes first, the peptide text is derived from it.
Assays:
NCI = experiment: Overall panel averaged growth inhibitory concentration against the U. S. National Cancer Institute panel of sixty human cancer cell lines; type: functional
P388 = experiment: In vitro inhibition of growth of p388 cells; type: functional; conditions: Mus musculus, read-out: ED50 (the source's name)

| Compound | GI50 (NCI) | EC50 (P388) |
| --- | --- | --- |
| CC[C@H](C)[C@@H]1NC(=O)[C@@H]2CCCN2C(=O)[C@@H]2CCCN2C(=O)[C@H](C(C)C)NC(=O)[C@H](Cc2ccc(O)cc2)NC(=O)[C@@H]2CCCN2C(=O)[C@@H]2CCCN2C(=O)[C@H](CC(C)C)NC(=O)[C@H](C(C)C)NC(=O)[C@H](Cc2ccccc2)NC1=O (cyclo(FVLPPYVPPI)) | > 10 µM | 4.1 µg/mL (≈ 3.65 µM) |
| CC[C@H](C)[C@@H]1NC(=O)[C@@H]2CCCN2C(=O)[C@@H]2CCCN2C(=O)[C@H]([C@@H](C)CC)NC(=O)[C@H](Cc2ccc(O)cc2)NC(=O)[C@@H]2CCCN2C(=O)[C@@H]2CCCN2C(=O)[C@H](CC(C)C)NC(=O)[C@H](C)NC(=O)[C@H](Cc2ccccc2)NC1=O (cyclo(ALPPYIPPIF)) | 0.55 µM | 3 µg/mL (≈ 2.7 µM) |
| CC[C@H](C)[C@@H]1NC(=O)[C@@H]2CCCN2C(=O)[C@@H]2CCCN2C(=O)[C@H]([C@@H](C)CC)NC(=O)[C@H](Cc2ccc(O)cc2)NC(=O)[C@@H]2CCCN2C(=O)[C@@H]2CCCN2C(=O)[C@H](CC(C)C)NC(=O)[C@H](C(C)C)NC(=O)[C@H](Cc2ccccc2)NC1=O (cyclo(FVLPPYIPPI)) | > 10 µM | 2.9 µg/mL (≈ 2.55 µM) |

From ChEMBL document CHEMBL1128751, “Isolation and structure of the human cancer cell growth inhibitory cyclic decapeptides phakellistatins 7, 8 and 91,2” (1995)
